According to US6140120A, “Regulated transcription of targeted genes and other biological events” (Board of Trustees of Leland Stanford Jr. University, priority 1998, dated 2000):
“Also recorded” adds a separate entry of the source. Read-outs that look alike come from different tables or passages of the source.

What was measured:
cell culture = assay: Toxicity in cell culture; assay type: cell-based
[1] = tested on: myristoylated chimeric CD3/FKBP12 (MZF3E) receptor; assay: NFAT-SEAP reporter through myristoylated chimeric CD3/FKBP12 (MZF3E) receptor; assay type: cell-based, human
Description: In an illustrative case, this was accomplished by creating an intracellular receptor comprised of a small fragment of Src sufficient for posttranslational myristoylation (M), the cytoplasmic tail of zeta (Z; a component of the […] was also used), three consecutive FKBP12s (F3) and a flu epitope tag (E). Upon expressing the construct MZF3E (FIG. 18) in human (Jurkat) T cells, we confirmed that the encoded chimeric protein underwent FK1012-mediated oligomerization. The attendant aggregation of the zeta chains led to signaling via the endogenous TCR-signaling pathway (FIG. 15), as evidenced by secretion of alkaline phosphatase (SEAP) in response to an FK1012 (EC50 =50 nM). The promoter of the SEAP reporter gene was constructed to be transcriptionally activated by nuclear factor of activated T cells (NFAT), which is assembled in the nucleus following TCR-signaling.
Specifically, 5 μg of the eukaryotic expression vector, pBJ5, containing a myristoylated chimeric receptor was co-transfected with 4 μg NFAT-SX. MZE, MZF1E, MZF2E and MZF3E contain 0,1, 2, or 3 copies of FKBP12, respectively, downstream of a myristoylated CD3 cytoplasmic domain (see FIG. 2). As a control, 5 μg of pBJ5 was used in a parallel transfection. After 24 hours, aliquots of each transfection containing approximately 10^5 cells were incubated with log dilutions of the drug, FK1012B, as indicated. As a positive control and to control for transfection efficiency, ionomycin (1 μm) and PMA (25 ng/ml) were added to aliquots from each transfection. After an additional 12 hour incubation, the supernatants were assayed for alkaline phosphatase activity and these activities were expressed relative to that of the positive control samples. […] Compare FIGS. 7 and 8.

[2] = tested on: TAC/TAC/Z (TTZ) chimeric receptor; IL-2 enhancer/NFAT reporter in TAg Jurkat cells; assay: SEAP reporter induction through chimeric receptor TAC/TAC/Z (TTZ); assay type: cell-based, human; conditions: 1 ng/ml FK506
Protocol: As a positive control and to control for transfection efficiency, ionomycin (1 μm) and PMA (25 ng/ml) were added to aliquots from each transfection.

calcineurin = conditions: complex with cyclophilin or FKBP12; cited from earlier work
[3] = tested on: chimeric FKBP12/CD3 (1FK3) receptor; assay: NFAT-SEAP reporter through chimeric FKBP12/CD3 (1FK3) receptor; assay type: cell-based, human; conditions: 2 ng/ml FK506; FK1012A-stimulated
Protocol: 5 μg of the eukaryotic expression vector, pBJ5, (based on pCDL-SR with a polylinker inserted between the 16S splice site and the poly A site), containing the chimeric receptor (1FK3), was co-transfected with 4 μg of the NFAT-inducible secreted alkaline phosphatase reporter plasmid, NFAT-SX. As a control, 5 μg of pBJ5 was used, instead of 1FK3/pBJ5, in a parallel transfection. After 24 hours, aliquots of each transfection containing approximately 10^5 cells were incubated with log dilutions of the drug, FK1012A, as indicated. As a positive control and to control for transfection efficiency, ionomycin (1 μm) and PMA (25 ng/ml) were added to aliquots from each transfection. After an additional 14 hour incubation, the supernatants were assayed for alkaline phosphatase activity and these activities were expressed relative to that of the positive control samples.

MZF1Eflu and MZF1Eflag = assay: Co-immunoprecipitation of FKBP monomer constructs MZF1E; assay type: cell-based, human
[4] = tested on: T cell receptor zeta chain / MZF3E in Jurkat cells; assay: Recruitment of kinase activity to zeta-chain (in vitro kinase assay after immunoprecipitation) and tyrosine phosphorylation; assay type: cell-based, human; conditions: Jurkat cells stably transfected with MZF3E
Description: FK1012-induced protein-tyrosine phosphorylation. The intracellular domains of the TCR, CD3 and zeta-chains interact with cytoplasmic protein tyrosine kinases following antigen stimulation. Specific members of the Src family (lck and/or fyn) phosphorylate one or more tyrosine residues of activation motifs within these intracellular domains (tyrosine activation motif, TAM). The tyrosine kinase ZAP-70 is recruited (via its two SH2 domains) to the tyrosine phosphorylated T-cell-receptor, activated, and is likely to be involved in the further downstream activation of phospholipase C. […] Tyrosine phosphorylation after treatment of cells with either anti-CD3 MAb or FK1012 was detected using monoclonal alpha-phosphotyrosine antibodies. Whole cell lysates were analysed at varying times after stimulation. […] The pattern consisted of a major band of 70 kDa, probably ZAP-70, and minor bands of 120 kDa, 62 kDa, 55 kDa and 42 kDa.

[5] = tested on: MZF3E chimera in Jurkat T cells; assay: Co-immunoprecipitation of MZF3Eflu with MZF3Eflag (induced dimerization); assay type: cell-based, human; conditions: 1 μM
ΔMFF3E = assay: Apoptosis with non-myristoylated construct ΔMFF3E; assay type: cell-based; conditions: ΔMFF3E vs. myristoylated construct
[6] = tested on: FKBP12-Fas antigen chimera in D10 T cells; assay: Apoptosis through FKBP12-Fas chimera in D10 T cells; assay type: cell-based; conditions: murine D10 T cells
Description: (§1) A chimeric cDNA has been constructed consisting of three FKBP12 domains fused to the cytoplasmic signaling domain of the Fas antigen (FIG. 20). […] Since the stable transfectants represent a homogeneous population of cells, they have been used to ascertain that death is due to apoptosis rather than necrosis (membrane blebbing, nucleosomal DNA fragmentation). However, the transient transfection protocol requires much less work and has therefore been used as an initial assay system, as described below.

[7] = tested on: Fas-FKBP12 fusion protein (MFF3E) in Jurkat T cells; assay: Cell death/apoptosis through Fas-FKBP12 fusion MFF3E in Jurkat T cells; assay type: cell-based; conditions: human Jurkat T cells
Description: FIG. 21B depicts Immunphilin-Fas antigen chirneras and results of transient expression experiments in Jurkat T cells stably transformed with large T-antigen. Myr: the myristylation sequence taken from pp60^c-src encoding residues 1-14 (Wilson et al, Mol & Cell Biol 9 4 (1989): 1536-44); FKBP: human FKBP12; CypC: murine cyclophilin C sequence encoding residues 36-212 (Freidman et al, Cell 66 4 (1991): 799-806); Fas: intracellular domain of human Fas antigen encoding residues 179-319 (Oehm et al, J Biol Chem 267 15 (1992): 10709-15). Cells were electroporated with a plasmid encoding a secreted alkaline phosphatase reporter gene under the control of 3 tandem API promoters along with a six fold molar excess of the immunophilin fusion construct. After 24 h the cells were stimulated with PMA (50 ng/mL), which stimulates the synthesis of the reporter gene, and (CsA)2. At 48 h the cells were assayed for reporter gene activity. Western blots were performed at 24 h using anti-HA epitope antibodies.
as §1, with “However, the transient transfection protocol requires much less work and has therefore been used as an initial assay system, as described below.” left out

[8] = tested on: calcineurin-mediated TCR signaling; assay: Inhibition of calcineurin-mediated TCR signaling / immunosuppression; assay type: cell-based; conditions: listed as FK1012s
FKBP12 = FKBP12 (Homo sapiens, UniProt P62942); assay: Binding of FK1012s, stoichiometry and Kd; conditions: 2:1 binding stoichiometry
FKBP12, sequence (P62942 whole entry): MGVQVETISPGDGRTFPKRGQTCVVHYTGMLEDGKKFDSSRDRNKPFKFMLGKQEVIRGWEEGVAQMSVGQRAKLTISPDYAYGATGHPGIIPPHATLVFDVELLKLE

With CO[C@H]1C[C@@H](C)C/C(C)=C/[C@@H](CCOC(=O)NCc2ccccc2)C(=O)C[C@H](O)[C@@H](C)[C@@H](/C(C)=C/[C@@H]2CC[C@@H](O)[C@H](OC)C2)OC(=O)[C@@H]2CCCCN2C(=O)C(=O)[C@]2(O)O[C@H]1[C@@H](OC)C[C@H]2C [FK506-M] as the molecule, how does the “toxicity of monomeric ligand” value (cell culture; in words) read?
Its value is “nontoxic”.

What about the “termination of FK1012-induced signaling” value ([1]; monomeric ligand) of the same molecule?
Its value is “FK1012-induced signaling can be terminated”.

What does the source list for C=CC[C@@H]1/C=C(\C)C[C@H](C)C[C@H](OC)[C@H]2O[C@@](O)(C(=O)C(=O)N3CCCC[C@H]3C(=O)O[C@H](/C(C)=C/[C@@H]3CC[C@@H](O)[C@H](OC)C3)[C@H](C)[C@@H](O)CC1=O)[C@H](C)C[C@@H]2OC [FK506]?
response of NFAT reporter on addition of FK506 [2]: dropped all activity due to NFAT to background levels; binding to / inactivation of calcineurin as immunophilin complex (calcineurin): binds with high affinity to calcineurin; stimulation of NFAT reporter on addition of FK506 [3]: dropped all stimulations to background levels; stimulation of NFAT reporter on addition of FK506 ([1]; 1 ng/ml FK506, FK1012B-stimulated): dropped all stimulations to near background levels

Which “dimerization of FKBP monomer constructs” value (MZF1Eflu and MZF1Eflag) does the source give for CO[C@H]1C[C@@H](C)C/C(C)=C/[C@@H](CCOC(=O)NCc2ccc(CNC(=O)OCC[C@@H]3/C=C(\C)C[C@H](C)C[C@H](OC)[C@H]4O[C@@](O)(C(=O)C(=O)N5CCCC[C@H]5C(=O)O[C@H](/C(C)=C/[C@@H]5CC[C@@H](O)[C@H](OC)C5)[C@H](C)[C@@H](O)CC3=O)[C@H](C)C[C@@H]4OC)cc2)C(=O)C[C@H](O)[C@@H](C)[C@@H](/C(C)=C/[C@@H]2CC[C@@H](O)[C@H](OC)C2)OC(=O)[C@@H]2CCCCN2C(=O)C(=O)[C@]2(O)O[C@H]1[C@@H](OC)C[C@H]2C [FK1012A] here?
Its value is “also dimerized”.

And the “recruitment of kinase activity to the zeta-chain” value [4]?
The value was “recruitment of kinase activity to the zeta-chain”.

And the “coimmunoprecipitation of MZF3Eflu with MZF3Eflag” value [5]?
Its value is “interacts with MZF3Eflu and is coimmunoprecipitated with MZF3Eflag”.

For FK1012, which “potency of mutated construct as inducer of FK1012-dependent apoptosis” value (ΔMFF3E) is on record?
Its value is “equally potent”.

And the induction of apoptosis [6]?
Its induction of apoptosis is “FK1012-dependent apoptosis”.

And the “induction of cell death / apoptosis” value [7]?
Its value is “FK1012-dependent apoptosis; also recorded: cell death of the Jurkat T-cell line”.

And the inhibition of signaling [8]?
Its inhibition of signaling is “does not inhibit signaling pathways; also recorded: do not inhibit calcineurin-mediated TCR signaling”.

What about the toxicity (cell culture; FK1012s: up to 0.1 mM in cell culture) of the same molecule?
Its toxicity is “nor toxic (up to 0.1 mM in cell culture)”.

And the Kd (FKBP12; read-out: Kd (1))?
Its Kd is 0.1 nM.

And the Kd (FKBP12; read-out: Kd (2))?
The Kd was 0.8 nM.

And the EC50 ([1]; Jurkat T cells expressing MZF3E, read-out: EC50, secretion of alkaline phosphatase (SEAP))?
The EC50 was 50 nM.
